The values that follow come from the NIST ThermoML archive (doi:10.1016/j.fluid.2018.08.001).

For this series the following is noted: 303.15 K, 101.33 kPa, Liquid; for viscosity: Capillary tube (Ostwald / Ubbelohde) method; for speed of sound: Linear variable-path acoustic interferometer; for mass density: Pycnometric method.

± gives the expanded uncertainty stated by the source.

The term viscosity denotes the resistance of a fluid to flow. Usually speed of sound stands for how fast a sound wave travels through the sample. What is called mass density is mass per unit of volume.

Take `CCCCCC` [hexane]: the viscosity stood at 0.36 ± 0.04 mPa·s, the speed of sound is 1051.2 ± 1.9 m/s and the mass density came out at 652.9 ± 1 kg/m3.
Regarding `C1CCOC1` [tetrahydrofuran], the viscosity stood at 0.46 ± 0.04 mPa·s, the speed of sound came out at 1252.2 ± 1.9 m/s and the mass density is listed as 876.5 ± 1.1 kg/m3.
Take `C1COCCO1` [1,4-dioxane]: the viscosity was found to be 1.08 ± 0.04 mPa·s, the speed of sound is reported as 1321 ± 1.9 m/s and the mass density is 1022.4 ± 1.1 kg/m3.
The like results for `NCc1ccccc1` [benzylamine] were, in that order, 1.43 ± 0.04 mPa·s, 1538.2 ± 2.1 m/s and 975.6 ± 1.1 kg/m3.
